Columns and labels:
[1] = test system: monocotyledonous and dicotyledonous weeds; experiment: Experiment on weeding effect in post-emergence stage (weeds); format: in vivo; settings: 600 g/ha active ingredient plus water 450 kg/ha, 3 weeks after application, fresh weight control rate; for Amaranthus retroflexus activity level (growth control rate): fomesafen-resistant Amaranthus retroflexus
Excerpt: The activity level criteria for plant damage (i.e., growth control rate) are as follows: • Level 5: growth control rate is above 85%; • Level 4: growth control rate is greater than or equal to 60% and less than 85%; • Level 3: growth control rate is greater than or equal to 40% and less than 60%; • Level 2: growth control rate is greater than or equal to 20% and less than 40%; • Level 1: growth control rate is greater than or equal to […]; • Level 0: growth control rate is less than 5%.
(§1) The above growth control rates are fresh weight control rates.
(§2) (1) Experiment on weeding effect in post-emergence stage: monocotyledonous and dicotyledonous weed seeds and major crop seeds (wheat, corn, rice, soybean, cotton, oilseed rape, millet, sorghum) were placed in plastic pots filled with soil, then covered with 0.5-2 cm of soil, allowed to grow in a good greenhouse environment. After 2-3 weeks of sowing, the test plants were treated. The tested compounds of the present invention were respectively dissolved in acetone, then added with Tween 80, diluted with a certain amount of water to obtain a solution with a certain concentration, and sprayed with a spray tower onto the plants. After the application, the plants were cultured for 3 weeks in the greenhouse, and then the experimental results of the weeding were listed in Table 2.

[2] = test system: major crops (wheat, corn, rice, soybean, cotton, oilseed rape, millet, sorghum); experiment: Experiment on weeding effect in post-emergence stage (crops); format: in vivo; settings: 600 g/ha active ingredient plus water 450 kg/ha, 3 weeks after application; for corn plant damage level (growth control rate): crop corn; for rice plant damage level (growth control rate): crop rice; for soybean plant damage level (growth control rate): crop soybean
Protocol: as §1
as §2, with “plants.” for “plants. After the application, the plants were cultured for 3 weeks in the greenhouse, and then the experimental results of the weeding were listed in Table 2.”

| SMILES | Amaranthus retroflexus activity level (growth control rate) [1] | corn plant damage level (growth control rate) [2] | rice plant damage level (growth control rate) [2] | soybean plant damage level (growth control rate) [2] | Echinochloa crus-galli activity level (growth control rate) [1] | Setaria viridis activity level (growth control rate) [1] | Digitaria sanguinalis activity level (growth control rate) [1] |
| --- | --- | --- | --- | --- | --- | --- | --- |
| COCN1c2ccc(F)cc2C(=O)N(C(C)C)S1(=O)=O [Compound 56] | 3 (Level 3: growth control rate is greater than or equal to 40% and less than 60%) | 0 (Level 0: growth control rate is less than 5%) | 0 (Level 0: growth control rate is less than 5%) | 0 (Level 0: growth control rate is less than 5%) |  |  |  |
| CC(=O)N1c2ccc(F)cc2C(=O)N(C(C)C)S1(=O)=O [Compound 62] | 5 (Level 5: growth control rate is above 85%) | 0 (Level 0: growth control rate is less than 5%) | 0 (Level 0: growth control rate is less than 5%) | 0 (Level 0: growth control rate is less than 5%) | 3 (Level 3: growth control rate is greater than or equal to 40% and less than 60%) | 3 (Level 3: growth control rate is greater than or equal to 40% and less than 60%) |  |
| CC(C)OC(=O)N1c2ccc(F)cc2C(=O)N(C(C)C)S1(=O)=O [Compound 63] | 5 (Level 5: growth control rate is above 85%) | 0 (Level 0: growth control rate is less than 5%) | 0 (Level 0: growth control rate is less than 5%) | 0 (Level 0: growth control rate is less than 5%) | 4 (Level 4: growth control rate is greater than or equal to 60% and less than 85%) | 3 (Level 3: growth control rate is greater than or equal to 40% and less than 60%) | 3 (Level 3: growth control rate is greater than or equal to 40% and less than 60%) |
| CCOC(=O)OC(C)N1c2ccc(F)cc2C(=O)N(C(C)C)S1(=O)=O (stereo not shown) [Compound 64] | 5 (Level 5: growth control rate is above 85%) | 0 (Level 0: growth control rate is less than 5%) | 0 (Level 0: growth control rate is less than 5%) | 0 (Level 0: growth control rate is less than 5%) | 4 (Level 4: growth control rate is greater than or equal to 60% and less than 85%) | 3 (Level 3: growth control rate is greater than or equal to 40% and less than 60%) | 3 (Level 3: growth control rate is greater than or equal to 40% and less than 60%) |
| CC(C)N1C(=O)c2cc(F)cnc2NS1(=O)=O [Compound 75] | 4 (Level 4: growth control rate is greater than or equal to 60% and less than 85%) | 1 (Level 1: growth control rate is greater than or equal to 500 and less than 200%) | 1 (Level 1: growth control rate is greater than or equal to 500 and less than 200%) |  | 3 (Level 3: growth control rate is greater than or equal to 40% and less than 60%) | 3 (Level 3: growth control rate is greater than or equal to 40% and less than 60%) |  |
| CC(C)N1C(=O)c2cc(F)cc(F)c2NS1(=O)=O [Compound 142] | 5 (Level 5: growth control rate is above 85%) | 1 (Level 1: growth control rate is greater than or equal to 500 and less than 200%) | 1 (Level 1: growth control rate is greater than or equal to 500 and less than 200%) | 1 (Level 1: growth control rate is greater than or equal to 500 and less than 200%) | 5 (Level 5: growth control rate is above 85%) | 5 (Level 5: growth control rate is above 85%) | 5 (Level 5: growth control rate is above 85%) |
| CC(C)N1C(=O)c2cc(F)cc(Br)c2NS1(=O)=O [Compound 143] | 5 (Level 5: growth control rate is above 85%) | 1 (Level 1: growth control rate is greater than or equal to 500 and less than 200%) | 0 (Level 0: growth control rate is less than 5%) | 1 (Level 1: growth control rate is greater than or equal to 500 and less than 200%) | 4 (Level 4: growth control rate is greater than or equal to 60% and less than 85%) | 5 (Level 5: growth control rate is above 85%) | 5 (Level 5: growth control rate is above 85%) |
| CC(C)N1C(=O)c2cc(F)cc(Cl)c2NS1(=O)=O [Compound 144] | 5 (Level 5: growth control rate is above 85%) | 1 (Level 1: growth control rate is greater than or equal to 500 and less than 200%) | 0 (Level 0: growth control rate is less than 5%) | 1 (Level 1: growth control rate is greater than or equal to 500 and less than 200%) | 5 (Level 5: growth control rate is above 85%) | 5 (Level 5: growth control rate is above 85%) | 5 (Level 5: growth control rate is above 85%) |
| CC(C)N1C(=O)c2cc(F)cc(I)c2NS1(=O)=O [Compound 145] | 4 (Level 4: growth control rate is greater than or equal to 60% and less than 85%) | 1 (Level 1: growth control rate is greater than or equal to 500 and less than 200%) | 0 (Level 0: growth control rate is less than 5%) | 0 (Level 0: growth control rate is less than 5%) | 4 (Level 4: growth control rate is greater than or equal to 60% and less than 85%) | 5 (Level 5: growth control rate is above 85%) | 4 (Level 4: growth control rate is greater than or equal to 60% and less than 85%) |
| CC(C)N1C(=O)c2cc(F)c(F)cc2NS1(=O)=O [Compound 146] | 5 (Level 5: growth control rate is above 85%) | 1 (Level 1: growth control rate is greater than or equal to 500 and less than 200%) | 0 (Level 0: growth control rate is less than 5%) | 1 (Level 1: growth control rate is greater than or equal to 500 and less than 200%) | 5 (Level 5: growth control rate is above 85%) | 5 (Level 5: growth control rate is above 85%) | 4 (Level 4: growth control rate is greater than or equal to 60% and less than 85%) |
| CC(C)N1C(=O)c2cc(F)c(Cl)cc2NS1(=O)=O [Compound 147] | 3 (Level 3: growth control rate is greater than or equal to 40% and less than 60%) | 0 (Level 0: growth control rate is less than 5%) | 0 (Level 0: growth control rate is less than 5%) |  |  |  |  |
